What was measured:
[1] = system: MRL/MpJ-Faslpr mice; experiment: MRL/MpJ-Faslpr lupus mouse model fed SSI-4 chow; type: in vivo
Description: (§1) MRL/MpJ-Fas^lpr mice and B6 (C)-H2-Ab1^bm12/KhEgJ (bm12) mice were purchased from the Jackson Laboratory. Six weeks old female MRL/MpJ-Fas^lpr mice were treated with control chow or SSI-4 chow (60 mg/kg, on a two-week SSI-4 chow/control-chow alternating schedule) ad libitum for 15 weeks. Proteinuria was measured using Albustix strips (Siemens). Kidney histology was done using routine H&E staining. Thirty million splenocytes from 8 weeks old B6 (C)-H2-Ab1^bm12/KhEgJ (bm12) mice were transferred into C57BL/6 mice intraperitoneally. Mice were fed with control chow or SSI-4 chow (30 mg/kg, on an one-week SSI-4 chow/control-chow alternating schedule) ad libitum for 8 weeks.
(§2) For analysis of surface markers, cells were stained in PBS containing 1% (w/v) bovine serum albumin on ice for 30 minutes, with anti-B220 (RA3-6B2, Biolegend), anti-CD4 (GK1.5, Biolegend), anti-CD138 (281-2, Biolegend), anti-PD-1 (J43, ThermoFisher). CXCR5 was stained with biotinylated anti-CXCR5 (2G8) followed by staining with streptavidin-conjugated PE (both from BD Biosciences). Cell viability was assessed using the Fixable Dye Ghost 510 (Tonbo Bioscience) following the manufacturer's protocol. Flow cytometry was performed on the LSR II, LSR Fortessa (BD Biosciences) or Attune NxT (ThermoFisher) cytometers, and analysis was performed using FlowJo software (Tree Star).

[2] = system: influenza A infected mice; experiment: Influenza A/PR8 infection of mice fed SSI-4 chow; type: in vivo, mouse
Description: For influenza virus infection, influenza A/PR8 strain (200 pfu/mouse) were diluted in FBS-free DMEM media on ice and inoculated in anesthetized mice through intranasal route. Sera were collected before and two weeks after infection for fatty acid component measurement. The mice were fed with control chow or SSI-4 chow for 1 week following influenza infection before switching to regular diet. The mediastinal lymph nodes were analyzed for GC B cell formation and Tfh differentiation. Mice were bred and maintained under specific pathogen-free conditions in Department of Comparative Medicine of Mayo Clinic with IACUC approval.
(§3) For analysis of surface markers, cells were stained in PBS containing 1% (w/v) bovine serum albumin on ice for 30 minutes, with anti-IgG1 (RMG1-1, Biolegend), anti-CD19 (ID3, Biolegend) anti-B220 (RA3-6B2, Biolegend), anti-CD4 (GK1.5, Biolegend), anti-CD8 (53-6.7, Biolegend), anti-CD25 (PC16, Biolegend), anti-GL7 (GL-7, Biolegend), anti-CD95 (Jo2, BD Biosciences), anti-CD138 (281-2, Biolegend), anti-IgD (11-26c.2a, Biolegend), anti-PD-1 (J43, ThermoFisher), anti-IgM (II/41, ThermoFisher). Antigen specific GC response was detected with tetramer NP-phycoerythrin conjugated with PE (Biosearch Technologies). CXCR5 was stained with biotinylated anti-CXCR5 (2G8) followed by staining with streptavidin-conjugated PE (both from BD Biosciences). Cell viability was assessed using the Fixable Dye Ghost 510 (Tonbo Bioscience) or Annexin V cell apoptosis kit with 7-AAD (ThermoFisher) following the manufacturer's protocol. Phosflow staining for phospho-S6 (S235/236) was performed using Phosflow Fix/Perm kit (BD Biosciences). Mitochondrial potential was measured by staining with 20 nM TMRM (ThermoFisher) following manufacturer's instructions. Flow cytometry was performed on the LSR II, LSR Fortessa (BD Biosciences) or Attune NxT (ThermoFisher) cytometers, and analysis was performed using FlowJo software (Tree Star).
For NP specific antibodies detection in sera, 96-well plates (2596; Costar) were coated with 2 μg/mL NP23-BSA in PBS overnight. Plates were washed twice (0.05% Tween 20 in PBS), blocked with 5% blocking protein (Bio-Rad) for 1 hour, and washed twice, and serially diluted serum samples were added for 1.5 hours at 37° C. Plates were washed four times and horseradish peroxidase (HRP)-conjugated detection Abs for IgG (Bethyl Laboratories) and IgG1 (Bethyl Laboratories) were added for 1 hour at RT, washed four times, and tetramethylbenzidine (TMB) substrate was added. Reaction was stopped using 2N H2SO4 and read at 450 nm. Similarly, antibodies IgG, IgG1 and IgG2c specific to influenza A/PR8 strain in sera were measured with influenza virus coated plate.

[3] = system: GFP-LC3; experiment: Flow cytometry of GFP-LC3 in activated B cells from GFP-LC3 reporter mouse; type: cell-based; conditions: SSI-4 ex vivo
Description: as §3

[4] = system: C57BL/6 mice receiving bm12 splenocytes; experiment: bm12 splenocyte transfer lupus (cGvHD) model fed SSI-4 chow; type: in vivo, mouse; conditions: SSI-4 chow 30 mg/kg
Description: as §1, §2

[5] = system: mice; experiment: Mice fed SSI-4 chow: serum fatty acids (GC-MS) and lymphocyte development; type: in vivo, mouse
[6] = system: SCD; experiment: Fatty acid composition of fresh and activated B cells by LC-MS/MS; type: cell-based, mouse; conditions: 100 nM SSI-4, 48 hours
[7] = system: activated mouse B cells; experiment: Transmission electron microscopy of autophagosomes in activated mouse B cells; type: cell-based; conditions: SSI-4 treated B cells
Description: Cells were fixed in Trumps fixative (pH 7.2) at 4° C. overnight, spun down and the supernatant removed. They were re-suspended in 2% agarose which was allowed to cool and solidify. The cells in agarose were then post-fixed in 1% OsO4, dehydrated through a graded series of ethanols and embedded in Spurr resin. One hundred nm […] ultra-thin sections were mounted on 200-mesh copper grids, post-stained with lead citrate, and observed under a JEOL JEM-1400 transmission electron microscope at 80 kV.

Structure (SMILES): CNC(=O)c1ccnc(NC(=O)N2CCC(Oc3ccccc3Cl)CC2)c1 [SSI-4, 2-{[4-(2-Chlorophenoxy)piperidine-1-carbonyl]amino}-N-methylpyridine-4-carboxamide]
- kidney histology (H&E) ([1]; SSI-4 chow 60 mg/kg, alternating schedule): reduced immune cell infiltration and inflammation
- proteinuria ([1]; SSI-4 chow 60 mg/kg, two-week alternating schedule, from 6 weeks old, measured from 8 weeks old): no increase of proteinuria
- B cell proliferation measured by Ki-67 expression ([1]; flow cytometry): significantly reduced
- B cell metabolic activity measured by expression of CD98 ([1]; flow cytometry MFI): significantly reduced
- production of anti-influenza total IgG, IgG1 and IgG2c in sera ([2]; ELISA): significantly dampened
- body weight loss in influenza A infected mice ([2]; SSI-4 chow for 1 week following infection vs control chow): substantially more severe weight loss
- frequency of GC B cells in mediastinal lymph nodes ([2]; day 11 following infection): significantly reduced
- CD138+ plasmablast formation ([2]; influenza infection): did not affect
- expression of Bcl6 in B cells ([2]; mediastinal lymph nodes): significantly reduced
- GFP-LC3 expression (MFI) [3]: higher LC3 expression
- generation of CXCR5+PD-1+ follicular helper T cells [4]: reduced
- generation of IgD-CD138+ plasma cells [4]: reduced
- serum anti-dsDNA autoantibody level ([4]; one-week alternating schedule, 8 weeks, ELISA): reduced
- CD25+ pre-B cells in bone marrow ([5]; SSI-4 chow): significant reduction
- GC percentage and IgA expression in Peyer's patches ([5]; SSI-4 chow): modest reduction
- composition of thymocytes ([5]; SSI-4 chow): unaffected
- number of peripheral B cells and CD4+ T cells ([5]; SSI-4 chow): not affected
- pool of immature B cells and B cell precursors (CD19+ B220int) in bone marrow ([5]; SSI-4 chow): significant reduction
- serum OA and PO concentration ([5]; SSI-4 chow for 1 week, GC-MS): markedly reduced
- frequency of mature B cells (CD19+IgMloIgD+) ([5]; SSI-4 chow, spleen): slightly increased
- accumulation of MUFAs (PO, OA) in activated B cells [6]: largely reversed it
- autophagosome structures by transmission electron microscopy [7]: increased structures with double layer membrane
